Experimental data published in ChEMBL document CHEMBL4196088, “Induction of cell killing and autophagy by amphiphilic pyrrolidine derivatives on human pancreatic cancer cells” (Eur J Med Chem, 2018).
Active and inactive are the calls of the source. The rule behind the calls is not given here.

What was measured:
PANC-1 [1] = assay: Growth inhibition of human PANC1 cells after 72 hrs by XTT assay; assay type: functional, cell-based; details: PANC-1, 72 h
Fibroblast = assay: Induction of apoptosis in human primary fibroblasts assessed as accumulation at sub-G0/G1 phase at 10 uM after 48 hrs by propidium iodide staining based flow cytometry (reference value: 6.1%); assay type: cell-based
PANC-1 [2] = assay: Induction of apoptosis in human PANC1 cells assessed as accumulation at sub-G0/G1 phase at 10 uM after 48 hrs by propidium iodide staining based flow cytometry (reference value: 0.2 to 2.9%); assay type: functional
MIA PaCa-2 [3] = assay: Induction of apoptosis in human MIAPaCa2 cells assessed as late apoptotic cells at 20 uM after 24 hrs by Annexin V-FITC/propidium iodide staining based flow cytometry (reference value: 7.4%); assay type: functional
PANC-1 [4] = assay: Induction of apoptosis in human PANC1 cells assessed as accumulation at sub-G0/G1 phase at 10 uM after 24 hrs by propidium iodide staining based flow cytometry (reference value: 0.6 to 0.7%); assay type: functional
BXPC-3 [5] = assay: Induction of apoptosis in human BxPC3 cells assessed as accumulation at sub-G0/G1 phase at 10 uM after 72 hrs by propidium iodide staining based flow cytometry (reference value: 3.4%); assay type: functional
PANC-1 [6] = assay: Induction of apoptosis in human PANC1 cells assessed as accumulation at sub-G0/G1 phase at 10 uM after 72 hrs by propidium iodide staining based flow cytometry (reference value: 1.6 to 3.2%); assay type: functional
BXPC-3 [7] = assay: Induction of apoptosis in human BxPC3 cells assessed as accumulation at sub-G0/G1 phase at 20 uM after 24 hrs by propidium iodide staining based flow cytometry (reference value: 2.3%); assay type: functional
PK9 [8] = assay: Induction of apoptosis in human PK9 cells assessed as accumulation at sub-G0/G1 phase at 10 uM after 72 hrs by propidium iodide staining based flow cytometry (reference value: 4%); assay type: functional
[9] = Induction of apoptosis in HPNE cells assessed as accumulation at sub-G0/G1 phase at 20 uM after 72 hrs by propidium iodide staining based flow cytometry (reference value: 6.6%); assay type: cell-based; details: human
PANC-1 [10] = assay: Induction of apoptosis in human PANC1 cells assessed as accumulation at sub-G0/G1 phase at 20 uM after 24 hrs by propidium iodide staining based flow cytometry (reference value: 0.6 to 0.7%); assay type: functional
BXPC-3 [11] = assay: Induction of apoptosis in human BxPC3 cells assessed as accumulation at sub-G0/G1 phase harboring pSFFV-Bcl-XL at 20 uM after 48 hrs by propidium iodide staining based flow cytometry (reference value: 1.3%); assay type: functional
BXPC-3 [12] = assay: Induction of autophagy in human BxPC3 cells assessed as increase in LC3-2 protein expression at 20 uM after 15 to 48 hrs by Western blot analysis; assay type: functional, cell-based
BXPC-3 [13] = assay: Induction of apoptosis in human BxPC3 cells assessed as accumulation at sub-G0/G1 phase at 20 uM after 48 hrs in presence of autophagy inhibitor 3-MA by propidium iodide staining based flow cytometry; assay type: functional, cell-based
[14] = Induction of apoptosis in HPNE cells assessed as accumulation at sub-G0/G1 phase at 10 uM after 72 hrs by propidium iodide staining based flow cytometry (reference value: 6.6%); assay type: cell-based; details: human
BXPC-3 [15] = assay: Induction of apoptosis in human BxPC3 cells assessed as accumulation at sub-G0/G1 phase at 20 uM after 72 hrs by propidium iodide staining based flow cytometry (reference value: 3.4%); assay type: functional
PANC-1 [16] = assay: Induction of apoptosis in human PANC1 cells assessed as accumulation at sub-G0/G1 phase at 20 uM after 72 hrs by propidium iodide staining based flow cytometry (reference value: 1.6 to 3.2%); assay type: functional
MIA PaCa-2 [17] = assay: Induction of autophagy in human MIAPaCa2 cells assessed as increase in LC3-2 protein expression at 20 uM after 15 to 48 hrs by Western blot analysis; assay type: functional, cell-based
BXPC-3 [18] = assay: Growth inhibition of human BxPC3 cells after 72 hrs by XTT assay; assay type: functional, cell-based; details: BXPC-3, 72 h
PANC-1 [19] = assay: Induction of apoptosis in human PANC1 cells assessed as accumulation at sub-G0/G1 phase at 20 uM after 48 hrs by propidium iodide staining based flow cytometry (reference value: 0.2 to 2.9%); assay type: functional
BXPC-3 [20] = assay: Induction of apoptosis in human BxPC3 cells harboring pSFFV-Bcl-XL assessed as accumulation at sub-G0/G1 phase at 20 uM by propidium iodide staining based flow cytometry; assay type: functional, cell-based; details: TDE = time-dependent effect
NCI-H460 = assay: Growth inhibition of human NCI-H460 cells after 72 hrs; assay type: functional, cell-based; details: NCI-H460, 72 h
BXPC-3 [21] = assay: Induction of autophagy in human BxPC3 cells assessed as increase in LC3-2 protein expression at 20 uM after 48 hrs in presence of autophagy inhibitor bafilomycin A1 by Western blot analysis; assay type: functional, cell-based
BXPC-3 [22] = assay: Induction of apoptosis in human BxPC3 cells assessed as accumulation at sub-G0/G1 phase at 20 uM by propidium iodide staining based flow cytometry; assay type: functional, cell-based; details: TDE = time-dependent effect
SK-BR-3 = assay: Growth inhibition of human SKBR3 cells after 72 hrs; assay type: functional, cell-based; details: SK-BR-3, 72 h
PK9 [23] = assay: Induction of apoptosis in human PK9 cells harboring BECN1 shRNA at 20 uM after 24 hrs by Annexin V/7-AAD staining based flow cytometry; assay type: functional, cell-based
PK9 [24] = assay: Induction of apoptosis in human PK9 cells harboring ATG7 shRNA at 20 uM after 24 hrs by Annexin V/7-AAD staining based flow cytometry; assay type: functional, cell-based
BXPC-3 [25] = assay: Induction of autophagy in human BxPC3 cells assessed as increase in LC3-2 protein expression at 20 uM after 48 hrs in presence of autophagy inhibitor 3-MA by Western blot analysis; assay type: functional, cell-based
ACHN = assay: Growth inhibition of human ACHN cells after 72 hrs; assay type: functional, cell-based
HeLa = assay: Growth inhibition of human HeLa cells after 72 hrs; assay type: functional, cell-based
PANC-1 [26] = assay: Induction of apoptosis in human PANC1 cells assessed as accumulation at sub-G0/G1 phase at 20 uM by propidium iodide staining based flow cytometry; assay type: functional, cell-based; details: TDE = time-dependent effect
Jurkat = assay: Growth inhibition of human Jurkat cells after 72 hrs; assay type: functional, cell-based

SMILES: CCCCCCCCCCCCCCCCCCOCC(COP(=O)([O-])OCC[N+](C)(C)C)OC (stereo not given) [EDELFOSINE]
- IC50 (PANC-1 [1]): 25.7 µM
- Activity (Fibroblast): 7.2%
- Activity (PANC-1 [2]): 11.5%
- Activity (MIA PaCa-2 [3]): 52.52%
- Activity (PANC-1 [4]): 3.2%
- Activity (BXPC-3 [5]): 24.3%
- Activity (PANC-1 [6]): 15.8%
- Activity (BXPC-3 [7]): 16.8%
- Activity (PK9 [8]): 10.3%
- Activity [9]: 8.2%
- Activity (PANC-1 [10]): 8.46%
- Activity (BXPC-3 [11]): 5%
- Activity (BXPC-3 [12]): Active
- Activity (BXPC-3 [13]): Active
- Activity [14]: 4.8%
- Activity (BXPC-3 [15]): 39.2%
- Activity (PANC-1 [16]): 23.2%
- Activity (MIA PaCa-2 [17]): Active
- IC50 (BXPC-3 [18]): 18.8 µM
- Activity (PANC-1 [19]): 16.2%

SMILES: CCCCCC/C=C\CCCCCCCCOC[C@H]1NC[C@H](O)[C@@H]1O
- Activity (BXPC-3 [20]): Tde
- Activity (Fibroblast): 8.7%
- Activity (PANC-1 [2]): 7.1%
- Activity (MIA PaCa-2 [3]): 10.68%
- IC50 (NCI-H460): 9 µM
- Activity (PANC-1 [4]): 6.7%
- Activity (BXPC-3 [5]): 20.8%
- Activity (BXPC-3 [21]): Active
- Activity (PANC-1 [6]): 18.6%
- Activity (BXPC-3 [22]): Tde
- IC50 (SK-BR-3): 6 µM
- Activity (BXPC-3 [7]): 15.8%
- Activity (PK9 [8]): 6.5%
- Activity [9]: 81.7%
- Activity (PANC-1 [10]): 5.3%
- Activity (BXPC-3 [11]): 6.7%
- Activity (BXPC-3 [12]): Active
- Activity (PK9 [23]): Active
- Activity (BXPC-3 [13]): Active
- Activity (PK9 [24]): Active
- Activity (BXPC-3 [25]): inactive
- IC50 (ACHN): 3 µM
- Activity [14]: 42.1%
- Activity (BXPC-3 [15]): 46.8%
- Activity (PANC-1 [16]): 27.1%
- Activity (MIA PaCa-2 [17]): Active
- IC50 (HeLa): 2 µM
- Activity (PANC-1 [19]): 14.5%
- Activity (PANC-1 [26]): Tde
- IC50 (Jurkat): 1 µM
